According to patent US20150133497A1, “GLYCINE REUPTAKE INHIBITOR AND USE THEREOF” (Beijing Medisan Technology Co., Ltd., priority 2011, published 2015):
pKi: −log10 of the molar value.

Assays:
G1yT2 = target: T1, G1yT2 (Homo sapiens, UniProt Q9Y345); assay: Selectivity vs GlyT2; format: cell-based; conditions: listed as head criterion >10 × vs G1yT2
T1 sequence (Q9Y345 1-797): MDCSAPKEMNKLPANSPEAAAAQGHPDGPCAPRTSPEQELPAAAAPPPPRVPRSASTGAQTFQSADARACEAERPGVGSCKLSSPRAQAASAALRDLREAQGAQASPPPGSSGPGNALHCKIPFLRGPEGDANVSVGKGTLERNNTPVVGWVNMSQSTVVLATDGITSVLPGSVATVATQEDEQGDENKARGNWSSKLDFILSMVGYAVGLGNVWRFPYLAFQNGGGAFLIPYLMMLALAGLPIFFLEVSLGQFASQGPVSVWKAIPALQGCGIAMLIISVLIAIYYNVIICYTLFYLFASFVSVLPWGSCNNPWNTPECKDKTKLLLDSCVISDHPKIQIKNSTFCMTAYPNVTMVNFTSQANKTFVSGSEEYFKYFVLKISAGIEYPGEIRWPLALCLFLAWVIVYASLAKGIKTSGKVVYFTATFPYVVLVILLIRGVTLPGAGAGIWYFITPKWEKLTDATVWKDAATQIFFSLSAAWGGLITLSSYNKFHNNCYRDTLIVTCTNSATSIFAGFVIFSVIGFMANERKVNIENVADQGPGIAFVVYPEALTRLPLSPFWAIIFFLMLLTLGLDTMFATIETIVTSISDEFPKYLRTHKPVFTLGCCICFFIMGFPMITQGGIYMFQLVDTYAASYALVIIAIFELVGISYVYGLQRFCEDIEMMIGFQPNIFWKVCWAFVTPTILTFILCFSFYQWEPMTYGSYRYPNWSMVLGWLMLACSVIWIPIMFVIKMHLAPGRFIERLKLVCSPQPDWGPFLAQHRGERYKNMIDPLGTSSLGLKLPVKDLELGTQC
Description: (§1) methods commonly used in the art were employed to determine the anti-glycine reuptake activity of the compound of the present invention. The experiment was repeated for three times and the mean value was taken.

in vitro = in vitro ADME; conditions: microsomes
Description: as §1

Cmax in rat CSF = format: in vivo; conditions: sc, 10 mg/kg s.c.
Rat PK = format: in vivo
NET = NET (Homo sapiens, UniProt P23975); assay: Selectivity, NET; format: cell-based; conditions: read-out: Selectivity NET pEC50 (converted)
GlyT1 = target: T2, GlyT1 (Homo sapiens, UniProt P48067); assay: Anti-glycine reuptake activity, GlyT1; format: cell-based; conditions: listed as head criterion > 6; mean of three experiments; read-out: GlyT1 pEC50 (converted)
T2 sequence (P48067 1-706): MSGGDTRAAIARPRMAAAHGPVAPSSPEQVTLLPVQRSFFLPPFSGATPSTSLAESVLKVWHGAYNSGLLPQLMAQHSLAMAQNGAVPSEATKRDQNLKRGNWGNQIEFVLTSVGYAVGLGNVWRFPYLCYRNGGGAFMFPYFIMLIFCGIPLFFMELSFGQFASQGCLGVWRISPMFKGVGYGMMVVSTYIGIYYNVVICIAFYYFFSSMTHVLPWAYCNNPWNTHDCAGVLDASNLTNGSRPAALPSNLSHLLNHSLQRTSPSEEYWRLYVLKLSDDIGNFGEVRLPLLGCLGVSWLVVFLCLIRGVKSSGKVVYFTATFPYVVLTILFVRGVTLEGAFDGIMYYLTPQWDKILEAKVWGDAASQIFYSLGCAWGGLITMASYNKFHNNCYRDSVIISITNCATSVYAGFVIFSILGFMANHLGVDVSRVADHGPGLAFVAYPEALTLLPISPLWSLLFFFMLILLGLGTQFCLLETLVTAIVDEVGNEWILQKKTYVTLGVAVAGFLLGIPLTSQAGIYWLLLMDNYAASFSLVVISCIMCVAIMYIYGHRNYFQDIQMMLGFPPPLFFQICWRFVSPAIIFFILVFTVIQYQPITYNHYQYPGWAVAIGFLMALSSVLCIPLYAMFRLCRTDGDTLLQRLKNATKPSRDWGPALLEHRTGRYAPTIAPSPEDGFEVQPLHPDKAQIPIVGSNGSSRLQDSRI
Description: as §1

[1] = Measured Clint, R-heps (hepatocytes); format: in vitro ADME, rat
hERG = hERG (Homo sapiens, UniProt Q12809); assay: hERG (pKi); format: binding
[2] = tested on: high-activity behaviors in rats induced by PCP; assay: Effect on high-activity behaviors in rats induced by PCP; format: in vivo, Wistar rats; conditions: for inhibition of high-activity behaviors in rats induced by PCP: Co. 1 5, 10 and 30 mg/kg i.p., Olanzepine 10 mg/kg i.p., PCP 5.0 mg/kg s.c., P<0.01 vs PCP group
Method: (§2) Animals used for experiments were adult male Wistar rats weighing 180˜250 g, housed in group of 6/cages, regulated with a 12/12 hour light/dark cycle, maintained at a constant temperature of 23±1° C. and a humidity of 50˜60% and allowed ad libitum access to rodent chow and water. After animals were purchased from the Experimental Animal Center, an adaptive housing was performed for a week, all the animals were randomly divided into three groups:
Group 1: negative control group, intraperitoneally injected with 1% DMSO in physiological saline (10.0 ml/kg, i.p.);
Group 2: experimental drug group, the rats were intraperitoneally injected respectively with different doses of test compound Co. 1: 5.0, 10 and 30 mg/kg, i.p., the drug was formulated in 1% DMSO in physiological saline.
Group 3: positive drug control group, the rats were intraperitoneally injected with Olanzepine (10 mg/kg, i.p., the drug was formulated in 1% DMSO in physiological saline)
The experiment employed Shanghai Jiliang animal behavior video analysis system, wherein the experimental environment was kept absolutely silent, when grabbing animals and administrating, movements were gentle to minimize adverse reactions of mental condition and emotion brought by external stimulus. The rats were moved from the animal room to a quiet lab and adapted for at least two hours. Subcutaneous injection of PCP (5.0 mg/kg, s.c.), or 1% DMSO in physiological saline as control, was administrated. 30 minutes later, the animals were intraperitoneally injected with the test compound, or 1% DMSO in physiological saline as control. The rats were placed in a spontaneous activity box, which was placed in an absolutely silent environment. The spontaneous activity box was connected to a recording apparatus and the activity conditions of rats were recorded for 30-60 minutes. The effect of drug or control on spontaneous activity in […] was determined.

[3] = tested on: high-activity behaviors in rats induced by Amphetamine; assay: Effect on high-activity behaviors in rats induced by Amphetamine; format: in vivo, Wistar rats; conditions: for inhibition of high-activity behaviors in rats induced by Amphetamine: Co. 1 5, 10 and 30 mg/kg i.p., Olanzepine 10 mg/kg i.p., Amphetamine 1.0 mg/kg s.c., P<0.01 vs Amphetamine group
Method: as §2
(§3) Group one: negative control group, intraperitoneally injected with 1% DMSO in physiological saline (10.0 ml/kg, i.p.);
Group two: experimental drug group, the rats were intraperitoneally injected respectively with different amounts of test compound Co. 1: 5, 10 and 30 mg/kg, i.p., the drug was formulated in 1% DMSO in physiological saline.
Group three: positive drug control group, the rats were intraperitoneally injected with Olanzepine (10 mg/kg, i.p., the drug was formulated in 1% DMSO in physiological saline)
The experiment employed Shanghai Jiliang animal behavior video analysis system, wherein the experimental environment was kept absolutely silent, when grabbing animals and administrating, movements were gentle to minimize adverse reactions of mental condition and emotion brought by external stimulus. The rats were moved from the animal room to a quiet lab and adapted for at least two hours. Subcutaneous injection of Amphetamine (1.0 mg/kg, s.c.), or 1% DMSO in physiological saline as control, was administrated. 30 minutes later, the animals were orally administrated of the compound, or physiological saline as control. The rats were placed in a spontaneous activity box, which was placed in an absolutely silent environment. The spontaneous activity box was connected to a recording apparatus and the activity conditions of rats were recorded for 30-60 minutes. The effect of drug or control on spontaneous activity in rats was determined.

[4] = tested on: spontaneous activity in rats; assay: Effect of test compound on spontaneous activity in rats (LMA); format: in vivo, Wistar rats; conditions: 5.0, 10 and 30 mg/kg i.p.; 60 minutes after administration; recorded 30-60 minutes; P>0.05, Dunnett's test
Method: as §2, with “in groups” for “in group”, “into two” for “into three”
as §3
Group two: experimental drug group, the rats were intraperitoneally injected respectively with different doses of test compound Co. 1: 5.0, 10 and 30 mg/kg, i.p., the drug was formulated in 1% DMSO in physiological saline.
The experiment employed Shanghai Jiliang animal behavior video analysis system, wherein the experimental environment was kept absolutely silent, when grabbing animals and administrating, movements were gentle to minimize adverse reactions of mental condition and emotion brought by external stimulus. […] The spontaneous activity box was connected to a recording apparatus and the activity conditions of rats were recorded for 30-60 minutes. The effect of drug or control on spontaneous activity in rats was determined.

Sequence of NET (P23975 whole entry): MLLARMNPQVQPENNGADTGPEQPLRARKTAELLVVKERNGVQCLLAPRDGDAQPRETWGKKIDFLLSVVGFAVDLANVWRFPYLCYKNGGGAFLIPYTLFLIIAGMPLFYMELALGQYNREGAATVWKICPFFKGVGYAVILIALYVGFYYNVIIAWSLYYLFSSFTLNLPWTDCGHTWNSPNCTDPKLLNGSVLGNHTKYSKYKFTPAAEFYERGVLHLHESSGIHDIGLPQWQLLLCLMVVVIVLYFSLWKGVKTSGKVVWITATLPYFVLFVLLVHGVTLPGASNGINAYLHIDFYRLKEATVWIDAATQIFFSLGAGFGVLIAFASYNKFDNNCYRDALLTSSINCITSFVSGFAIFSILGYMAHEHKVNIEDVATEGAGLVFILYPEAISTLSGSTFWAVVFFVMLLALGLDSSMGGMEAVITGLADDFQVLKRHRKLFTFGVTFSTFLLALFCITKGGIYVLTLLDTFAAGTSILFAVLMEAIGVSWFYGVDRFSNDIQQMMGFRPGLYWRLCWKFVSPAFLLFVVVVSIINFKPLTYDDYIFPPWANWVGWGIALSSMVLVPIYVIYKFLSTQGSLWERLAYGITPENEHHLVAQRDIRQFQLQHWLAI
Sequence of hERG (Q12809 whole entry): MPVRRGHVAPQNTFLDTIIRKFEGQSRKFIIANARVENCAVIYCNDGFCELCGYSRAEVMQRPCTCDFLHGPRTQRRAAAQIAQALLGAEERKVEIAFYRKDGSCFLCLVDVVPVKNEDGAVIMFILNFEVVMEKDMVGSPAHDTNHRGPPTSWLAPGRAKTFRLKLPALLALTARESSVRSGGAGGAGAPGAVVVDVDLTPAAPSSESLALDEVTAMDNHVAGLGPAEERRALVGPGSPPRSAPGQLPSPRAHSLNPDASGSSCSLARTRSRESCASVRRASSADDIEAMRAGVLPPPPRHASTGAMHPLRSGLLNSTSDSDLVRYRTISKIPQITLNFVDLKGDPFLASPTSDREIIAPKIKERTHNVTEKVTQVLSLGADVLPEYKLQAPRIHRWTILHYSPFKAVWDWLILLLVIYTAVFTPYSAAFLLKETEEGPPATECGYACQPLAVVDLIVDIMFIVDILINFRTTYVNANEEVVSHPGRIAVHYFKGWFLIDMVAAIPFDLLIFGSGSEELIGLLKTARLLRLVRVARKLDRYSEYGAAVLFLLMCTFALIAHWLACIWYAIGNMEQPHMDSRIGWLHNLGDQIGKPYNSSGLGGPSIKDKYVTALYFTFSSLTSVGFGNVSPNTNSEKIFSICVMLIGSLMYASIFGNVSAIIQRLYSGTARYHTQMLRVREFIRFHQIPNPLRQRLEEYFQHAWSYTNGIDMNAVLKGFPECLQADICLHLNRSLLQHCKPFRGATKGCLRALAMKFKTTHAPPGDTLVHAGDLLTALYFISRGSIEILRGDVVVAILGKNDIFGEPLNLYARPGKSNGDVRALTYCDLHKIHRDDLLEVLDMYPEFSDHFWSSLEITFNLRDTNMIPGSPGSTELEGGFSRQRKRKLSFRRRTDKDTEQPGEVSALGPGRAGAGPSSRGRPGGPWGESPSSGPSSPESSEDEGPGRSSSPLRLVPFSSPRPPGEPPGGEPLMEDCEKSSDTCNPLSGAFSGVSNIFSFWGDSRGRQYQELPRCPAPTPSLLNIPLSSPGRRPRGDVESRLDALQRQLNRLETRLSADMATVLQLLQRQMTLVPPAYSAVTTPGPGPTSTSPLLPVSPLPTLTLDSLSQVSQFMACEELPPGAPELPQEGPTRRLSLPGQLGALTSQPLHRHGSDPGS

Row | G1yT2 effect at 10-5 M (G1yT2) | microsomal CLint (in vitro; human) | microsomal CLint (in vitro; rat) | Cmax (Cmax in rat CSF) | Rat PK C1 (Rat PK) | Rat PK P (Rat PK) | EC50 (NET) | EC50 (GlyT1) | Measured Clint R-heps [1] | effect on spontaneous activity in rats [4] | Structure (SMILES) | pKi (hERG) | inhibition of high-activity behaviors in rats induced by PCP [2] | inhibition of high-activity behaviors in rats induced by Amphetamine [3] | inhibitory effect on PCP-induced high-activity behaviors compared with the positive drug Olanzepine ([2]; P<0.05, Dunnett's test, compared with the Olanzepine/PCP group) | inhibitory effect on Amphetamine-induced high-activity behaviors compared with the positive drug Olanzepine ([3]; P<0.05, Dunnett's test, compared with the Olanzepine/Amphetamine group)
1 | 14% @ 10-5 M | 135 µL/min/mg | 81 µL/min/mg | 60 nM | 52 mL/min/kg | < 1% | 316 nM | 63.1 nM | R-heps 15 ul/ml/106 cells | – | CCC(C)[C@@H](CN1CCCCC1)NC(=O)c1cc(C)nc(-c2cc(C)ccc2C(F)(F)F)c1 (some centres unmarked) [Co. 2] | 4.90 | – | – | – | –
2 | – | – | – | – | – | – | – | – | – | – | Cc1cc2c(s1)Nc1ccccc1N=C2N1CCN(C)CC1 [Olanzepine, reference compound] | – | significantly inhibited | significantly inhibited | – | –
3 | – | – | – | – | – | – | – | – | – | no significant effect | Cc1cc(C(=O)N[C@@H](CN2CCCCC2)C(C)C)cc(-c2ccccc2C(F)(F)F)n1 [Co. 1] | – | significantly inhibited | significantly inhibited | stronger | stronger
